Test results from patent US9056891B2, “Synthetic peptide inhibitors of Wnt pathway” (The United States of America, as represented by the …, priority 2010, dated 2015).
Where a SMILES comes first, the peptide text is derived from it. [ ]: non-standard residue; d: D form. The star is where a group is joined. Palmitoyl = CCCCCCCCCCCCCCCC(=O)*

Tests used:
[1] = tested on: RKO, HT-29, HCT-116, SW-480, and SW-620 cells; assay: Cell viability of colon cancer cells (FIGS. 2A-C); assay type: cell-based; conditions: increasing concentrations, HT-29, HCT-116, SW-480, SW-620
Method: The concentration (μM) of the peptide inhibitor is indicated on the x-axis and the percent viability is indicated on the y-axis.
A similar experiment was performed using RKO, HT-29, HCT-116, SW-480, and SW-620 cells. Colorectal adenocarcinoma SW-480 and SW-620 cells have truncated APC protein, which—as discussed above—is a common cause of canonical Wnt pathway activation in colon malignancies.

[2] = tested on: 4T1 cells; assay: Toxicity (growth inhibition) for 4T1 cells; assay type: cell-based, mouse
Method: To identify a mouse model for preclinical development of compounds, mouse cell lines were tested for (1) growth inhibition by the compounds and (2) the levels of constitutive Wnt signaling TCF-reporter activity using transfection of cell with TCF/LEF-responsive firefly luciferase construct. The data further confirmed that sensitivity to compounds correlated well with the levels of canonical Wnt signaling.
Based on the data, mouse breast cancer cell line 4T1 was selected for in vivo testing.
(§1) Further optimization and testing of inhibitors was performed using this cell line. Table 5 presents toxicity data for select inhibitors for 4T1 cells and human colon cancer cell line SW-480, wherein GI50 is the concentration providing 50% growth inhibition and TGI is the total growth inhibition.

[3] = tested on: SW480 cells; assay: Toxicity (growth inhibition) for SW-480 cells; assay type: cell-based, human; parameters: unit not given here
Method: as §1

[4] = tested on: RKO cells; assay type: cell-based; conditions: 48 h
Method: (§2) HeLa, U3A, RKO, HCT-116, and HT-29 cells were exposed to the CT-HC-1, CT-HC-3, CT-HC-5, and CT-HC-8 inhibitors of Example 1 for 48 hours in medium containing 1% bovine fetal serum, and the resulting cell number was evaluated using a MTT assay. Each of these cell lines is relevant to the evaluation of Wnt signaling. Cervical carcinoma HeLa cells overexpress β-catenin (see, e.g., Lee et al., Int. J. Cancer, 124(2): 287-297 (2009); and Lee et al., Gynecol. Oncol., 109(2): 270-274 (2008)). β-catenin is activated in colon carcinoma RKO due to mutation in CDX2 (see, e.g., Dang et al., Oncogene, 20(35): 4884-4890 (2001)). Colon adenocarcinoma HCT116 has elevated mutated β-catenin; however, it was found in the past to be resistant to down regulation of β-catenin (see, e.g., Chan et al., Proc. Natl. Acad. Sci. USA, 99(12): 8265-8270 (2002); and Handeli et al., Mol. Cancer Ther., 7(3): 521-529 (2008)). Colon carcinoma HT-29 has truncated adenomatous polyposis coli (APC) protein, which is a common cause of canonical Wnt pathway activation in colon malignancies. Fibrosarcoma U3A cells are STAT1-negative and have uncharacterized status of Wnt pathway.
(§3) The ability of CT-HC-1 to inhibit growth and to kill cancer cells at different concentrations was further investigated in HeLa, U3A, RKO, HCT-116, and HT-29 cells. The cells were stained with Promega Non-Radioactive Cell Proliferation Assay Kit (MTT) according to the manufacture's protocol. The absorbance of the wells was determined at 544 nm by a FLUOstar/POLARstar Galaxy (BMG Lab Technologies GmbH) Microplate Reader. The assays were performed on control (C) and test (T) cells. Untreated cells were used as a control. Cellular responses were calculated from the data using the following formula: 100×[(T−T0)/(C−T0)] for T>T0 and 100×[(T−T0)/T0] for T<T0. T0 corresponds to cell density at the time of drug addition.

[5] = tested on: HT-29 cells; assay type: cell-based; conditions: 48 h
Method: as §2, §3

[6] = tested on: U3A cells; assay type: cell-based; conditions: 48 h
Method: as §2, §3

[7] = tested on: HeLa cells; assay type: cell-based; conditions: 48 h
Method: as §2, §3

[8] = tested on: HCT-116 cells; assay type: cell-based, human; conditions: 48 h
Method: as §2, §3

[9] = target: T1, GFP-tagged beta-catenin (Homo sapiens, UniProt P35222); assay: Microscale thermophoresis of GFP-tagged beta-catenin; assay type: binding; conditions: HEK293 lysate, membrane-mimicking bicelles, Hill fit
T1 construct: made in house; host or cells: HEK293 cells (unpurified lysate)
T1 sequence (P35222 1-781): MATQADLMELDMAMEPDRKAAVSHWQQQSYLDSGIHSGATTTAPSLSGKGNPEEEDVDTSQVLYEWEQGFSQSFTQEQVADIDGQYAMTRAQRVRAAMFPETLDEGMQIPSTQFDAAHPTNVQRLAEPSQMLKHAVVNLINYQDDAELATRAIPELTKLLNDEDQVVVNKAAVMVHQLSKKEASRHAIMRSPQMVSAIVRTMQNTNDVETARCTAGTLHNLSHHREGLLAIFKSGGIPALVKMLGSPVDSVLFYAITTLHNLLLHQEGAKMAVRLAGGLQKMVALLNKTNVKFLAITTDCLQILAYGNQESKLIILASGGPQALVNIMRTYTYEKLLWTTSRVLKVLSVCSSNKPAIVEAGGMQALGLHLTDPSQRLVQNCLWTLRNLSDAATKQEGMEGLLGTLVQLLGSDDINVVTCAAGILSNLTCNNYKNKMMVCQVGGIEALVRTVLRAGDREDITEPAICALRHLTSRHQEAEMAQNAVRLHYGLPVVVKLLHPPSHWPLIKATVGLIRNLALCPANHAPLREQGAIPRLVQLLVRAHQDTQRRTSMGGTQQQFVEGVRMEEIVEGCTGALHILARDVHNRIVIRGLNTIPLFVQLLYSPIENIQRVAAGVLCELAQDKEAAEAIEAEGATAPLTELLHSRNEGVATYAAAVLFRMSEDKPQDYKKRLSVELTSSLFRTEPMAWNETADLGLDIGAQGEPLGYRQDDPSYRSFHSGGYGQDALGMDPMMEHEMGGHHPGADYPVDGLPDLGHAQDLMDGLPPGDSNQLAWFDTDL
Method: Briefly, beta-catenin was overexpressed as a GFP-fusion in HEK293 cells. The cells were lysed with ultrasound, and the resulting lysate was mixed with increasing concentrations of CT-HC-5 in the presence of membrane-mimicking bicelles. Thermophoretic mobility was measured in standard capillaries on Monolith NT.115 (NanoTemper Technologies).

[10] = tested on: 4T1 mouse breast cancer cells; assay: Colony formation by 4T1 cells; assay type: cell-based; conditions: 5 μM and 10 μM
Source text: The activity of compounds in inhibiting colony formation by 4T1 cells was also investigated, which test provides a prediction for compound's potency in vivo.

GI50 [5]: 2 ± 0.1 µM
GI50 [7]: 1.2 ± 0.09 µM
GI50 [8]: 2.4 ± 0.4 µM
Kd [9]: 2.7 ± 0.2 µM
SMILES: CCCCCCCCCCCCCCCC(=O)N[C@@H](C(=O)N[C@H](CCCNC(=N)N)C(=O)N[C@H](Cc1ccccc1)C(=O)N[C@H](CC(C)C)C(=O)N[C@H](CO)C(=O)N[C@H](CO)C(=O)N[C@@H](C(=O)N[C@H](CC(C)C)C(=O)N[C@H](CCC(=O)O)C(=O)N[C@@H](C(=O)N[C@H](CO)C(=O)N[C@H](CC(C)C)C(=O)N[C@H](CCCNC(=N)N)C(=O)N[C@H](CCCCN)C(=O)N[C@H](CCCCN)C(N)=O)C(C)C)[C@H](C)O)[C@H](C)O [CT-HC-5, Pal-TRFLSSTLEVSLRKK-NH2] (Palmitoyl-[dT][dR][dF][dL][dS][dS][dT][dL][dE][dV][dS][dL][dR][dK][dK]-NH2)
cell viability [1]: suppression of cell viability
4T1 cells TGI (total growth inhibition) [2]: > 5 µM
SW480 cells TGI (total growth inhibition) [3]: 2.5
GI50 [4]: 1.15 ± 0.05 µM
GI50 [6]: 1.5 ± 0.1 µM
colony formation by 4T1 cells [10]: inhibited colony formation
